According to ChEMBL document CHEMBL5465560, “Selectivity Literature for EUbOPEN Chemogenomic Library” (2024):
Each block holds one compound with its values, some of them ahead of it.

What was measured:
[1] = target: Glycogen synthase kinase-3 beta (Homo sapiens, UniProt P49841); experiment: Selectivity interaction (KinomeScan (DiscoverX)) EUB0001049a GSK3B; settings: at 1 µM
[2] = target: 5'-AMP-activated protein kinase catalytic subunit alpha-1 (Homo sapiens, UniProt Q13131); experiment: Selectivity interaction (ActivX KiNativ screen (kinase selectivity in THP-1 cell lysates)) EUB0000639a PRKAA1; type: subcellular; settings: lysate, at 1 µM
[3] = target: Nucleosome-remodeling factor subunit BPTF (Homo sapiens, UniProt Q12830); experiment: Selectivity interaction (Bromodomain panel (DSF asssay)) EUB0000270b BPTF
[4] = target: T1, Tyrosine-protein kinase JAK3 (Homo sapiens, UniProt P52333); experiment: Selectivity interaction (Kinase panel (33PanQinase(R) Activity Assay)) EUB0000877a JAK3
T1 sequence (P52333 whole entry): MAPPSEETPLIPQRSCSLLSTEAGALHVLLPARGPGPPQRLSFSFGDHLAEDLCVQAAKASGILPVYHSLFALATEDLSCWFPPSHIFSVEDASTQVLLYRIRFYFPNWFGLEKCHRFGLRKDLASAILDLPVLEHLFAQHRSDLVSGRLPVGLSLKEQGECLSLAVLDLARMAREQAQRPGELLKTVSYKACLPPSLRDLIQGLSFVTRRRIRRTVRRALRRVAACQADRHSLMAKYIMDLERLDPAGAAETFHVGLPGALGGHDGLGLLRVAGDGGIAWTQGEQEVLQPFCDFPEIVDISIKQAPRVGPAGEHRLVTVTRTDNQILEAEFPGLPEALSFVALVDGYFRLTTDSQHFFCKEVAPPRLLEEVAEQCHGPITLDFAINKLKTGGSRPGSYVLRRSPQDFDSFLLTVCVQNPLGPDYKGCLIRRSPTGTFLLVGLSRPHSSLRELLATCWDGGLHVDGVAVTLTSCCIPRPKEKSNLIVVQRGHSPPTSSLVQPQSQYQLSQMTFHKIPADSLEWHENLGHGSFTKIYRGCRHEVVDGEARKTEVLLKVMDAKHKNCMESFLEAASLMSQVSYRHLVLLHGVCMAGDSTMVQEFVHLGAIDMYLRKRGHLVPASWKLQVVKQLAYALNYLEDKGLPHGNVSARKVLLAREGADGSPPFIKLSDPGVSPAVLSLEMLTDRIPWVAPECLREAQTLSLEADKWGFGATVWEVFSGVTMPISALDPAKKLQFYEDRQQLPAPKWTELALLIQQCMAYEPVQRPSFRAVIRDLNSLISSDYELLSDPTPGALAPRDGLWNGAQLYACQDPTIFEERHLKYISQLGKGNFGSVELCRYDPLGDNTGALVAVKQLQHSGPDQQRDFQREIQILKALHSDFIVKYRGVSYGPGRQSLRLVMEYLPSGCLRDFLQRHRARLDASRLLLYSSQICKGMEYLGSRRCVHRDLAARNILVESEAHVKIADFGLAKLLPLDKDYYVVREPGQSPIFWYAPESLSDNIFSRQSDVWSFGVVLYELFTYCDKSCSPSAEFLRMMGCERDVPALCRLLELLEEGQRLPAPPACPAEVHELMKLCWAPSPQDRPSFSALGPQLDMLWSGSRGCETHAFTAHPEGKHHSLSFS

[5] = target: Polycomb protein SUZ12 (Homo sapiens) (UniProt Q15022); experiment: Selectivity interaction (Methyltransferase screen (radiometric assays, panel of 8 PRMTs, 21 protein lysine methyltransferases, 3 DNA methyltransferases, and one RNA methyltransferase)) EUB0000272b SUZ12
[6] = target: Mast/stem cell growth factor receptor Kit (Homo sapiens, UniProt P10721); settings: at 10 µM
[7] = target: Neuronal acetylcholine receptor; alpha4/beta2 (Homo sapiens) (UniProt P17787+P43681); experiment: Selectivity interaction (Panel of non-epigenetic targets (kinases, GPCRs, ion channels, and transporters, Eurofins) ) EUB0000271b CHRNA4; type: protein-complex assay; settings: at 1 µM
[8] = target: Histone-lysine N-methyltransferase KMT5B (Homo sapiens) (UniProt Q4FZB7); experiment: Selectivity interaction (Methyltransferase screen (radiometric assays, panel of 8 PRMTs, 21 protein lysine methyltransferases, 3 DNA methyltransferases, and one RNA methyltransferase)) EUB0000271b SUV420H1
[9] = target: T2, Myotonin-protein kinase (Homo sapiens) (UniProt Q09013); experiment: Selectivity interaction (ProQinase) EUB0000171b DMPK
T2 sequence (whole entry): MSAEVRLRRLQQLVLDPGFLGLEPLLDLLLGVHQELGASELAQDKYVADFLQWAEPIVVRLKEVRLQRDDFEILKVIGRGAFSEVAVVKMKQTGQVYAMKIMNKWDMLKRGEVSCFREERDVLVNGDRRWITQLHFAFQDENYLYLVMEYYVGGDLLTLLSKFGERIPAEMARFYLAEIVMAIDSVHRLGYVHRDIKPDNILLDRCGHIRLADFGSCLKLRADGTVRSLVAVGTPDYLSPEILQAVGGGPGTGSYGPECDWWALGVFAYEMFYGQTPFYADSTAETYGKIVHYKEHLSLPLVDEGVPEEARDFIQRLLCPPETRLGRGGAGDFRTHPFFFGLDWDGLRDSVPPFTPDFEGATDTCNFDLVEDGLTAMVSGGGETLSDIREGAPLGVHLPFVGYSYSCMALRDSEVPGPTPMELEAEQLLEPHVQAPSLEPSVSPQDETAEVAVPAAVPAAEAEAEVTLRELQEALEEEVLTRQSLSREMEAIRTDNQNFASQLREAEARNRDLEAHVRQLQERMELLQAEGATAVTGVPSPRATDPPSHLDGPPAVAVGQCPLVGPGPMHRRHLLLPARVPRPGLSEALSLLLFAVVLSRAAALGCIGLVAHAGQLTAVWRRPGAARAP

[10] = target: Protein arginine N-methyltransferase 6 (Homo sapiens, UniProt Q96LA8); experiment: Selectivity interaction (Scintillation proximity assays) EUB0000255b PRMT6
Sequence of Protein arginine N-methyltransferase 6 (Q96LA8 whole entry): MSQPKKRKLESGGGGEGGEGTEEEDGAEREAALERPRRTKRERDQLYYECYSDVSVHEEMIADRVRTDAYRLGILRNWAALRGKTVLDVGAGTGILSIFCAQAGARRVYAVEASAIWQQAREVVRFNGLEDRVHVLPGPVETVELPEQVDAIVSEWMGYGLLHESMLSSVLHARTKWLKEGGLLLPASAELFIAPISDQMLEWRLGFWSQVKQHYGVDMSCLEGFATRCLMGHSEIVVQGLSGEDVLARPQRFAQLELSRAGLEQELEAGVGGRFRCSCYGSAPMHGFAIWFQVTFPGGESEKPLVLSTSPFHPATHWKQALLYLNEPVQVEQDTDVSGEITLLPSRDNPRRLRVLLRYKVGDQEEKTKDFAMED

Sequence of Polycomb protein SUZ12 (Homo sapiens) (Q15022 whole entry): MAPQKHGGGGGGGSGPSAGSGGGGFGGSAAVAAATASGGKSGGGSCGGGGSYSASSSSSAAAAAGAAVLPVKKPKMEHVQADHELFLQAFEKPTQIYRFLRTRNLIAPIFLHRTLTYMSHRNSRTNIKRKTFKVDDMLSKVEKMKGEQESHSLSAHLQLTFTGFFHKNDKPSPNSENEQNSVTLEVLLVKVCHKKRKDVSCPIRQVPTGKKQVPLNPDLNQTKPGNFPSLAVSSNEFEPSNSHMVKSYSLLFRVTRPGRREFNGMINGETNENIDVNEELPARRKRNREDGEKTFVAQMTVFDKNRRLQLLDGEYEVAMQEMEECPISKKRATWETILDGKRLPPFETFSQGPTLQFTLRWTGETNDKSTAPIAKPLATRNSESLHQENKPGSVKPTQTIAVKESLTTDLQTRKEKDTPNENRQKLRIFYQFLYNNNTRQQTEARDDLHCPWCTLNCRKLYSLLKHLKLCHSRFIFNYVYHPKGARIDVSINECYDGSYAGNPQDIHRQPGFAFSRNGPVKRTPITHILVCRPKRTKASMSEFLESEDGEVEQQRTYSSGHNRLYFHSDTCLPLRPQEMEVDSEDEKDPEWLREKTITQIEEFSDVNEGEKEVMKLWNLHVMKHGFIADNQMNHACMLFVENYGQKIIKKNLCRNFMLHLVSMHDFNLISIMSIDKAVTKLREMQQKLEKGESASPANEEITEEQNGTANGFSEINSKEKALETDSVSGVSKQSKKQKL
Sequence of Histone-lysine N-methyltransferase KMT5B (Homo sapiens) (Q4FZB7 whole entry, looked up): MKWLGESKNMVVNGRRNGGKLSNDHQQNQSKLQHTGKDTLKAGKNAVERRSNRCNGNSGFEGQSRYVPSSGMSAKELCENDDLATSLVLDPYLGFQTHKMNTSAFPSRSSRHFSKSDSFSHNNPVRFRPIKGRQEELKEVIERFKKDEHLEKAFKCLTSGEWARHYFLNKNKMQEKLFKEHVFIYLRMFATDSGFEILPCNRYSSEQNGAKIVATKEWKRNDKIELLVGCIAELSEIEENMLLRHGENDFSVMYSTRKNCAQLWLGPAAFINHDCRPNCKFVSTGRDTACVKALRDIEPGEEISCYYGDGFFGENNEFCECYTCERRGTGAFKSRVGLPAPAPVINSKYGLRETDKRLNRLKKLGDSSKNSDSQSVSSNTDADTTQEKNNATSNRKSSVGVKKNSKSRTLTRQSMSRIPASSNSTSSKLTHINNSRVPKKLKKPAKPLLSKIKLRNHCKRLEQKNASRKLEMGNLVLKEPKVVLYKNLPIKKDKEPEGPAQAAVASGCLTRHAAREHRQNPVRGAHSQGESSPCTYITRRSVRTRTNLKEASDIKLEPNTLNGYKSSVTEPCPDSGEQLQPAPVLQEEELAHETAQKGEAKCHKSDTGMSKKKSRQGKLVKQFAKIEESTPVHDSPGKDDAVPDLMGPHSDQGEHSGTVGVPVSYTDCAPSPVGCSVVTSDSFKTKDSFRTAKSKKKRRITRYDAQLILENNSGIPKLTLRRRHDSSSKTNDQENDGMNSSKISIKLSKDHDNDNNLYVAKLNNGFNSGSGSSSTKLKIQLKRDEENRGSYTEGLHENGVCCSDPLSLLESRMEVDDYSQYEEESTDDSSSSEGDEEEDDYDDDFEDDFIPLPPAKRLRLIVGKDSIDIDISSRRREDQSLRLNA
Sequence of Glycogen synthase kinase-3 beta (P49841 whole entry, looked up): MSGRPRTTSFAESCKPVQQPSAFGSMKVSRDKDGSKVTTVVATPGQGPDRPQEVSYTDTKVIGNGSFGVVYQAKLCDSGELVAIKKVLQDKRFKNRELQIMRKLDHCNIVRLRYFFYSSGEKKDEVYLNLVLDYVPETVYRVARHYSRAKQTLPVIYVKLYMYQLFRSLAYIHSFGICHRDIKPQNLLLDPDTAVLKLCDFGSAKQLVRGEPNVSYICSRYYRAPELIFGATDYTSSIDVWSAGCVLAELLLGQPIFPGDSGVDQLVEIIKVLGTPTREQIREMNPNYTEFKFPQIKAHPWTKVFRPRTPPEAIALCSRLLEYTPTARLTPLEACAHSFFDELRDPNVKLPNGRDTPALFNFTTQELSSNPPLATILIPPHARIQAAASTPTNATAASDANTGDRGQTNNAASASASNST
Sequence of 5'-AMP-activated protein kinase catalytic subunit alpha-1 (Q13131 whole entry, looked up): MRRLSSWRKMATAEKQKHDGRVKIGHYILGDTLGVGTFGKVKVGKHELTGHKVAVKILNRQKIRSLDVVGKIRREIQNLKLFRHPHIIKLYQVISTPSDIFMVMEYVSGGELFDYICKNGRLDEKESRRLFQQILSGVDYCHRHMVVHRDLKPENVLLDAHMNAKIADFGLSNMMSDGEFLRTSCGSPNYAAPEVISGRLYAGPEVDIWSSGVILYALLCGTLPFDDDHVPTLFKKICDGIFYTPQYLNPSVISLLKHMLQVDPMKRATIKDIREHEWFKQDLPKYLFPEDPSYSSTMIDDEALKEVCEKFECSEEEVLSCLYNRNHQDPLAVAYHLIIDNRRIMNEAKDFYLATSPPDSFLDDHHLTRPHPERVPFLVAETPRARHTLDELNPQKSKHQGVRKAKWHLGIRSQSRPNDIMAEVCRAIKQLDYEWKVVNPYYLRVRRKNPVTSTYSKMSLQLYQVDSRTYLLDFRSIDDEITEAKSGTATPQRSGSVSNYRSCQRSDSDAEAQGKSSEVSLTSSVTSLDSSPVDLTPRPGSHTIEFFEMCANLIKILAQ
Sequence of Mast/stem cell growth factor receptor Kit (P10721 whole entry): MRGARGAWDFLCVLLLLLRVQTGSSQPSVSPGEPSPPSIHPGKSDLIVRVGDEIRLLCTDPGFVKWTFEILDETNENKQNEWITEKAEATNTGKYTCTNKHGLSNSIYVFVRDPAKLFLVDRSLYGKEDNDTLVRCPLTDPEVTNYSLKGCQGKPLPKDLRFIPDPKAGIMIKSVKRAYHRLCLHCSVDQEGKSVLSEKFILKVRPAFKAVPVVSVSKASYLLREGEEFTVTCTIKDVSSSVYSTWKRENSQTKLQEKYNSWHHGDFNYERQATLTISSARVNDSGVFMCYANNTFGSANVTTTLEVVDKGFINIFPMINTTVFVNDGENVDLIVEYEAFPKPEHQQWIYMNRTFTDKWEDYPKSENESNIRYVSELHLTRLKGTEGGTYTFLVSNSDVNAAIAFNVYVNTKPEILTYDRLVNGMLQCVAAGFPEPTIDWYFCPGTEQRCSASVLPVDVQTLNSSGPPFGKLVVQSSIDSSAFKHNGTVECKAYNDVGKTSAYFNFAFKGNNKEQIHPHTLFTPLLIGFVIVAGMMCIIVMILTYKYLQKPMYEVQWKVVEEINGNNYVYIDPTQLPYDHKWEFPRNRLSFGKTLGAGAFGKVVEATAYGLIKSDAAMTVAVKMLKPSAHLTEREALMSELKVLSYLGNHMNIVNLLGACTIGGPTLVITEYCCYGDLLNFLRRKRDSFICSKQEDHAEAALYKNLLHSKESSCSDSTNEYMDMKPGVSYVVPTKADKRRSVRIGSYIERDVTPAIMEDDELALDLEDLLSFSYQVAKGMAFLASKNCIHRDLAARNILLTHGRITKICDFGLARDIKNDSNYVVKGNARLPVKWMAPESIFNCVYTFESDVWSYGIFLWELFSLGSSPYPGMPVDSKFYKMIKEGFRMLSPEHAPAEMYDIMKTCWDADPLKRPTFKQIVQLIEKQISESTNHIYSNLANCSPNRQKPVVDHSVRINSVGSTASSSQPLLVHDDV

SMILES: COc1cc(Nc2nc(C)cc(-c3cnn4nc(OC)ccc34)n2)cc(C(F)(F)F)c1
- % of control [1]: 100%

SMILES: Cc1cc(C)cc([C@H]2c3cc(C)ccc3NC(=O)CN2C(=O)c2ccc(Br)s2)c1
- % of activity ([5]; at 1 µM): 102%
- % of activity ([5]; at 10 µM): 97.3%

SMILES: Cc1cc(C)cc([C@@H]2c3cc(C)ccc3NC(=O)CN2C(=O)c2ccc(Br)s2)c1
- % of inhibition [7]: -18%
- % of activity ([8]; at 1 µM): 103%
- % of activity ([8]; at 10 µM): 101%

SMILES: C=CC(=O)Nc1cccc(C(=O)Nc2ccc(Nc3cc(-c4[nH]c(SC)nc4C)ccn3)cc2)c1
- % of control ([9]; at 1 µM): 97%
- % of control ([9]; at 5 µM): 92%

SMILES: COCCN1CCC(c2cc(CN(C)C(=O)c3cccc(Oc4ccccc4)c3)ccn2)CC1
- IC50 [10]: > 10 µM

Next, values leading:

- % of inhibition [2]: -4.6%
SMILES: CC[C@@H]1[C@H](F)C(=O)N[C@@H]1COc1nccc2cc(C(N)=O)c(OC)cc12 [ZIMLOVISERTIB]

- dTM [3]: -2.3 K
SMILES: Cc1cc(CN)cc(C)c1-c1ncn(C)c1-c1cncn1C

- IC50 [4]: > 10 µM
SMILES: CCC(=O)N1CC[C@H](Nc2ncnc3c2CN(c2cnc(OC)c(C(F)(F)F)c2)CC3)C1 [LENIOLISIB]

- % of control [6]: 100%
SMILES: CCN(CC)CCCCNc1ncc2cc(-c3cc(OC)cc(OC)c3)c(NC(=O)NC(C)(C)C)nc2n1
